Test results published in PMC4349960, “[^18F]FE@SUPPY: a suitable PET tracer for the adenosine A3 receptor? An in vivo study in rodents” (European Journal of Nuclear Medicine and Molecular Imaging, 2015).
Several values for one entry are separate records, joined by “and”; a condition that tells them apart may be missing. Equal entries are not always repeated.

What was measured:
A3R [1] = biological target: T1, A3R (Rattus norvegicus, UniProt P28647); assay: Small-animal PET in rats: baseline and A3R blocking scans; type: in vivo; conditions: baseline PET, 60 min
T1 construct: Adult male Sprague-Dawley rats; from tissue; host or cells: living Sprague-Dawley rats, brain volume of interest in PET
T1 sequence (P28647 1-320): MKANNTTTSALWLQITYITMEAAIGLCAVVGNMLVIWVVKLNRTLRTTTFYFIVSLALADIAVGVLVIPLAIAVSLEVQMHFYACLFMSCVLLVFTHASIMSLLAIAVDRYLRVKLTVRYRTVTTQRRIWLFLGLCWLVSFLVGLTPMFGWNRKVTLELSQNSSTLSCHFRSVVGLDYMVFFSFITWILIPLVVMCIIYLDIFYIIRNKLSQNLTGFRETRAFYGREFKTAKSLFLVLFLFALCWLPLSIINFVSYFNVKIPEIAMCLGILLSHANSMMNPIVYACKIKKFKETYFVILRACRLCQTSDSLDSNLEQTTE
Text: A microPET Focus220 scanner (Siemens, Medical Solutions) was used for the experiments. It has 168 detector modules providing a 7.6-cm axial and 22-cm transaxial field of view. The resolution of the reconstructed images (filtered back projection) was 1.3 mm (full-width at half-maximum) in the central field of view and remained under 2 mm within the central 5 cm diameter field of view. For PET imaging two groups of animals (rats and xenografted mice) were investigated. Rats were divided into four groups. The first group received vehicle (dimethyl sulphoxide, DMSO) intravenously via a lateral tail vein 30 min prior to radiotracer administration (three animals, 14.3 – 70.1 MBq, 0.2604 ± 0.06 μg). The second group received MRS1523 – a selective A3R antagonist – at a dose of 2 mg/kg body weight (dissolved in DMSO, 4 mg/mL) intravenously via a tail vein 30 min prior to radiotracer administration (three animals, 18.8 – 59.1 MBq, 0.3443 ± 0.05 μg). The third group received unlabelled title compound FE@SUPPY (dissolved in DMSO, 4 mg/mL) at a dose of 2 mg/kg 30 min before tracer administration (three animals, 9.7 – 16.1 MBq, 0.3926 ± 0.04 μg). In the final study group, the effect of P-glycoprotein inhibition was assessed by intravenous administration of 15 mg/kg TQD (freshly dissolved on each experimental day in 2.5 % aqueous dextrose solution and injected intravenously via a tail vein at a volume of 3 mL/kg over 1 min) 60 min prior to tracer administration (three animals, 13.9 – 26.8 MBq, 0.7451 ± 0.11 μg).
Anaesthetized animals were positioned in the imaging chamber of the microPET scanner, which was kept at 38 °C throughout the experiment. A stereotactic holder attached to the bed, consisting of ear plugs and a tooth bar, was used to fix the animal's head to ensure a reproducible position during the PET studies. [^18F]FE@SUPPY (27.91 ± 13.82 MBq) dissolved in 0.48 ± 0.22 mL phosphate-buffered saline (pH 7.4) was administered as a bolus via a tail vein. Dynamic PET imaging was performed over 60 min in all animals. At the end of the PET scan the animals were killed, a terminal blood sample was collected and whole brains were removed for testing of metabolite stability.
For all PET scans (rats and xenografted mice), list mode data were acquired with an energy window of 350 – 750 keV (rats) or 250 – 750 keV (mice) and a 6-ns timing window. Before each PET scan, a transmission scan using a ^57Co point source was recorded over 10 min. The PET data from the 60-min dynamic scans were sorted into three-dimensional sinograms according to the following frame sequence: 6 × 20 s, 5 × 60 s, 4 × 120 s, 3 × 300 s and 3 × 600 s. For the 90-min scans (in the xenografted mice) the following frame sequence was used: 8 × 5 s, 2 × 10 s, 2 × 30 s, 3 × 60 s, 2 × 150 s, 2 × 300 s, 4 × 600 s and 2 × 900 s. PET images were reconstructed by Fourier rebinning followed by filtered back projection with a ramp filter. The resulting voxel size was 0.6 × 0.6 × 0.8 mm for rats or 0.4 × 0.4 × 0.8 mm for mice. The standard data correction protocol (normalization, attenuation and decay correction) was applied to the data. A calibration factor for converting units of microPET images into absolute radioactivity concentration units was first generated by imaging a phantom filled with a known concentration of [^18F]FDG.
Rat brains were manually outlined on multiple planes of the PET summation images using the image analysis software PMOD 3.1 (Pmod Ltd, Zürich, Switzerland) or Amide. Volumes of interest in the brain or solid tissue mass (xenografts) were transferred to the PET images of the individual time frames and time–activity curves (TACs) expressed in units of kilobecquerels per millilitre were calculated. To facilitate comparison of TACs of different animals, radioactivity concentrations were normalized to dose and weight and expressed as standardized uptake value (SUV, %ID/cm^3 or %ID/g). […]

[2] = Ex vivo stability/metabolism in rat plasma and brain after pretreatment; parameters: species or system rats; conditions: for Brain to blood uptake ratio / %ID/g at 60 min, Blood (plasma) / %ID/g at 60 min, Brain / Unchanged [^18F]FE@SUPPY at 60 min, Blood (plasma) / Unchanged [^18F]FE@SUPPY at 60 min, Brain: rats
Protocol: To determine the influence of the four treatments (vehicle, MRS1523, FE@SUPPY, TQD) on uptake of [^18F]FE@SUPPY, stability was assessed in plasma and brain 60 min after tracer injection. Final blood samples (3 mL) were collected in heparin-buffered tubes, rat brains were washed with ice-cold water and homogenized in 0.9 % aqueous NaCl solution (1 mL) using an IKA T10 basic Ultra-turrax (IKA Laboratory Equipment, Staufen, Germany). […] Sample clean-up was performed by vortexing plasma with the equivalent amount of methanol/acetonitrile (9:1) for 1 min and by subsequent ultracentrifugation (10,000 rpm, 5 min) to remove precipitated proteins. The supernatants obtained were analysed by radio-HPLC (Agilent, Boeblingen, Germany) equipped with a series 1100 autosampler, a series 1200 quaternary pump, a series 1200 diode array detector and a lead-shielded BGO radiodetector. A Chromolith® Performance RP-18e (100 × 4.6 mm, 5 μm) column with a Chromolith® Performance RP-18e (4 x4 mm, 5 μm) precolumn was eluted at a flow rate of 2 mL/min using a mobile phase consisting of 60 % acetonitrile and 40 % water/acetic acid 97.5:2.5 and 32 mM ammonium acetate, pH 3.5. UV detection was performed at a wavelength of 254 nm. The retention time of [^18F]FE@SUPPY was 4.6 – 5.9 min (UV detection and radiodetection).

A3R [3] = test system: A3R; parameters: method as in PMID 20447552; conditions: cited from earlier work
[4] = pretreatment unlabelled FE@SUPPY

Compound: CCSC(=O)c1c(CC)nc(-c2ccccc2)c(C(=O)OCC[18F])c1CC [[^18F]FE@SUPPY, 5-(2-[^18F]fluoroethyl)-2,4-diethyl-3-(ethylsulfanylcarbonyl)-6-phenylpyridine-5-carboxylate]
- tracer uptake in fat-rich regions (harderian and lacrimal glands) (A3R [1]): high uptake
- tracer uptake in the brain (A3R [1]): low uptake
- Ex vivo metabolites in rats (where found) ([2]; 60 min after tracer injection): Blood and brain
- Brain to blood uptake ratio ([2]; baseline): 5.2
- %ID/g at 60 min, Blood (plasma) ([2]; pretreatment DMSO): 0.022 ± 0.003 %ID/g and 0.0216 ± 0.003 %ID/g
- %ID/g at 60 min, Brain ([2]; pretreatment DMSO): 0.1132 ± 0.0002 %ID/g
- Unchanged [^18F]FE@SUPPY at 60 min, Blood (plasma) ([2]; pretreatment DMSO): 25.8 ± 5.3% and 25.81 ± 5.3%
- Unchanged [^18F]FE@SUPPY at 60 min, Brain ([2]; pretreatment DMSO): 43.7 ± 9.5%
- Brain to blood uptake ratio ([2]; pretreatment FE@SUPPY): 7.9
- %ID/g at 60 min, Blood (plasma) ([2]; pretreatment MRS1523): 0.0145 ± 0.002 %ID/g
- %ID/g at 60 min, Brain ([2]; pretreatment MRS1523): 0.0918 ± 0.0001 %ID/g
- Unchanged [^18F]FE@SUPPY at 60 min, Blood (plasma) ([2]; pretreatment MRS1523): 26.5 ± 1.4% and 26.54 ± 1.4%
- Unchanged [^18F]FE@SUPPY at 60 min, Brain ([2]; pretreatment MRS1523): 37.8 ± 4.3% and 37.75 ± 4.3%
- %ID/g at 60 min, Blood (plasma) ([2]; pretreatment TQD): 0.0214 ± 0.004 %ID/g
- %ID/g at 60 min, Brain ([2]; pretreatment TQD): 0.1507 ± 0.0005 %ID/g
- Unchanged [^18F]FE@SUPPY at 60 min, Blood (plasma) ([2]; pretreatment TQD): 39.9 ± 4.7% and 39.87 ± 4.7%
- Unchanged [^18F]FE@SUPPY at 60 min, Brain ([2]; pretreatment TQD): 55.2 ± 7.0% and 55.21 ± 7.0%
- %ID/g at 60 min, Blood (plasma) [2, 4]: 0.0160 ± 0.002 %ID/g
- %ID/g at 60 min, Brain [2, 4]: 0.1273 ± 0.0000 %ID/g
- Unchanged [^18F]FE@SUPPY at 60 min, Blood (plasma) [2, 4]: 32.4 ± 5.6%
- Unchanged [^18F]FE@SUPPY at 60 min, Brain [2, 4]: 49.6 ± 9.4% and 49.64 ± 9.4%
- Autoradiography in humans and rats (A3R [3]): High selectivity; FE@SUPPLY comparable with MRS1523 [12]
